Reference: ChEMBL document CHEMBL1125437, “Syntheses, resolution, and structure-activity relationships of potent acetylcholinesterase inhibitors: 8-carbaphysostigmine analogues” (J Med Chem, 1992)

Legend:
[1] = system: Mus musculus; test: (§1) In vitro lethality measured at 24 hours in mice following intraperitoneal administration; details: in vivo, ip, 24 h
[2] = biological target: T1, Acetylcholinesterase (Homo sapiens, UniProt P22303); test: In vitro inhibitory activity against human AchE (Acetylcholinesterase)
[3] = system: Mus musculus; test: Percent elevation of ACh level in mouse forebrain following intraperitoneal administration at a dose of 0.8 mg/kg; type: functional
[4] = as §1; details: mouse, in vivo, ip, LD50
[5] = system: Mus musculus; test: Percent elevation of ACh level in mouse forebrain following intraperitoneal administration at a dose of 1.6 mg/kg; type: functional
[6] = biological target: T1, Acetylcholinesterase; test: In vitro inhibitory activity against human Acetylcholinesterase
[7] = system: Mus musculus; test: Percent elevation of ACh level in mouse forebrain following intraperitoneal administration at a dose of 4.8 mg/kg; type: functional
[8] = system: Mus musculus; test: Percent elevation of ACh level in mouse forebrain following intraperitoneal administration at a dose of 3.4 mg/kg; type: functional
[9] = system: Mus musculus; test: Percent elevation of ACh level in mouse forebrain following intraperitoneal administration at a dose of 2.0 mg/kg; type: functional
[10] = system: Mus musculus; test: Percent elevation of ACh level in mouse forebrain following intraperitoneal administration at a dose of 0.4 mg/kg; type: functional
[11] = system: Mus musculus; test: Percent elevation of ACh level in mouse forebrain following intraperitoneal administration at a dose of 1.2 mg/kg; type: functional

T1 sequence (P22303 whole entry): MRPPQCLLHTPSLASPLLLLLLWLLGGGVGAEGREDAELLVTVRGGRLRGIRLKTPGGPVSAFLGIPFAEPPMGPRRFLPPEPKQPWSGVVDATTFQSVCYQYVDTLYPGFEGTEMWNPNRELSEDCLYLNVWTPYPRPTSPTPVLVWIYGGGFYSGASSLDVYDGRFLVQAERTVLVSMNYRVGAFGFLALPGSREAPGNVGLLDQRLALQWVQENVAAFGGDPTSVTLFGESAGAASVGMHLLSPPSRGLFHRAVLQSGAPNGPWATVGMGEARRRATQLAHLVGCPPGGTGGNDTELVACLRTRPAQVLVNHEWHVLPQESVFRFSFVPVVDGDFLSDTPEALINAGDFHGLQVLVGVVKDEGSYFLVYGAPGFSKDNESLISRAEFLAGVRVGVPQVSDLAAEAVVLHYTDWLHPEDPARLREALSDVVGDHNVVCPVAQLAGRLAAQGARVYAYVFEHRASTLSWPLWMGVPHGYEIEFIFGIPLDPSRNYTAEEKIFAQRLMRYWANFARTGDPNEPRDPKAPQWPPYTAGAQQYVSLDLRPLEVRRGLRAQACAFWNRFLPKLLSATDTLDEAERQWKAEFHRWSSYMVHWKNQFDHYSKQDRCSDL

SMILES | IC50 [2] [nM] | LD50 at 24 h [4] [mg/kg] | further results
CCCCCCCNC(=O)Oc1ccc2c(c1)[C@]1(C)CCN(CC)C1C2 (mixture of isomers) | 58 | – | LD50 [1]: 9 mg/kg
CCCCCCNC(=O)Oc1ccc2c(c1)[C@@H]1CCN(CCC)C1C2 (stereo in doubt; 1z) | 518 | – | –
CCCCCCNC(=O)Oc1ccc2c(c1)[C@]1(C)CCN(CC)C1C2 (single isomer, unassigned; (-)) | 20 | – | LD50 [1]: 4 mg/kg; Control [3]: 148%
CCN1CC[C@@]2(C)c3cc(OC(=O)Nc4ccccc4)ccc3CC12 (mixture of isomers) | 176 | 8 | Control [5]: 121%
CCN1CC[C@H]2c3cc(OC(=O)NC)ccc3CC21 (stereo partly drawn) | 253 | – | –
CCCCNC(=O)Oc1ccc2c(c1)[C@]1(C)CCN(CC)C1C2 (mixture of isomers) | – | 4 | IC50 [6]: 90 nM
CCCCCCNC(=O)Oc1ccc2c(c1)[C@@H]1CCN(CC)C1C2 (mixture of isomers) | 208 | 19 | –
CCCCCCCNC(=O)Oc1ccc2c(c1)[C@]1(C)CCN(Cc3ccccc3)C1C2 (stereo partly drawn) | – | – | IC50 [6]: 506 nM
CCCCCCCNC(=O)Oc1ccc2c(c1)[C@]1(C)CCN(C)[C@@H]1N2C [EPTASTIGMINE] | 110 | 24 | Control [7]: 148%
CCCNC(=O)Oc1ccc2c(c1)[C@@H]1CCN(CC)C1C2 (stereo partly drawn) | 2190 | – | –
CNC(=O)Oc1ccc2c(c1)[C@]1(C)CCN(C)[C@@H]1N2C [PHYSOSTIGMINE] | – | 0.88 | –
CCCCCCNC(=O)Oc1ccc2c(c1)[C@]1(C)CCN(CCC)C1C2.Cc1ccc(C(=O)OC(C(=O)O)C(OC(=O)c2ccc(C)cc2)C(=O)O)cc1.O (mixture of isomers) | – | 17 | Control [8]: 141%; IC50 [6]: 62 nM
CCCNC(=O)Oc1ccc2c(c1)[C@]1(C)CCN(CC)C1C2 (mixture of isomers) | 154 | 6 | –
CCCCCCNC(=O)Oc1ccc2c(c1)[C@]1(C)CCN(C)C1C2 (mixture of isomers) | 77 | 10 | Control [9]: 162%
CCN1CC[C@@]2(C)c3cc(OC(=O)NC(C)(C)C)ccc3CC12 (mixture of isomers) | – | > 100 | –
CCCCCCCNC(=O)Oc1ccc2c(c1)[C@@H]1CCN(CC)C1C2 (mixture of isomers) | – | 58 | IC50 [6]: 381 nM
CCCCCCCNC(=O)Oc1ccc2c(c1)[C@]1(C)CCN(CC)C1C2 (single isomer, unassigned; (+)) | 211 | – | LD50 [1]: 18 mg/kg
CCCCCCCNC(=O)Oc1ccc2c(c1)[C@]1(C)CCN(C)C1C2 (stereo partly drawn) | 114 | 21 | –
CCCCCCNC(=O)Oc1ccc2c(c1)[C@]1(C)CCN(CC)C1C2 (mixture of isomers) | 45 | – | LD50 [1]: 5 mg/kg
CCN1CC[C@@]2(C)c3cc(OC(=O)NCc4ccccc4)ccc3CC12 (mixture of isomers) | – | 2 | Control [10]: 123%
CCCCCCCNC(=O)Oc1ccc2c(c1)[C@]1(C)CCN(CC)C1C2 (single isomer, unassigned; (-)) | 36 | – | LD50 [1]: 6 mg/kg; Control [11]: 129%
CCN1CC[C@@]2(C)c3cc(OC(=O)NC)ccc3CC12 (mixture of isomers) | – | 0.88 | IC50 [6]: 38 nM
CCCCCCCNC(=O)Oc1ccc2c(c1)[C@]1(C)CCN(CCC)C1C2 (stereo partly drawn) | – | 27 | IC50 [6]: 93 nM
CCCCCCNC(=O)Oc1ccc2c(c1)[C@@H]1CCN(CCC)C1C2 (stereo in doubt; 1y) | 546 | – | –
CCCCCCCNC(=O)Oc1ccc2c(c1)[C@@H]1CCN(CCC)C1C2 (stereo partly drawn) | 629 | – | –
CCCCNC(=O)Oc1ccc2c(c1)[C@@H]1CCN(CC)C1C2 (mixture of isomers) | 1080 | > 32 | –
CCCCCCNC(=O)Oc1ccc2c(c1)[C@]1(C)CCN(CC)C1C2 (single isomer, unassigned; (+)) | 233 | – | LD50 [1]: 32 mg/kg
CCN1CC[C@@]2(C)c3cc(OC(=O)N[C@@H](C)c4ccccc4)ccc3CC12 (stereo partly drawn) | 1330 | – | –
